This note sets out measurements from patent US9040673B2, “Synthesis and identification of novel RSK-specific inhibitors” (University of Virginia Patent Foundation, priority 2009, dated 2015).

The structures appear in SMILES notation.

In test [1] the test system is p140, a RSK substrate. In words: PDB-induced p140 phosphorylation in MCF-10A cells (immunoblot). The format is cell-based, human. The method, then: To determine whether SL0101-1 inhibits RSK in intact cells, phosphorylation of p140, a RSK substrate of unknown function, was examined in a human breast cancer cell line, MCF-7. MCF-7 and MCF-10A cells were pre-incubated with vehicle, 50 μM U0126 or the indicated concentration of SL0101-1 for 3 hr (FIG. 8D). Cells were treated with 500 nM PDB for 30 min prior to lysis. Protein concentration of lysates was measured and lysates were electrophoresed, transferred and immunoblotted. […] Pre-incubation of cells with 100 μM SL0101-1 abrogates phorbol dibutyrate (PDB)-induced p140 phosphorylation as does 50 μM U0126, a MEK inhibitor.
Cell Culture. For proliferation studies cells were seeded at 2500 to 5000 cells per well in 96 well tissue culture plates in the appropriate medium as described by American Type Culture Collection. After 24 hr, the medium was replaced with medium containing compound or vehicle as indicated. Cell viability was measured at indicated time points using CellTiter-Glo™ assay reagent (Promega) according to manufacturer's protocol. For in vivo inhibition studies, cells were seeded at 2.5×10^5 cells/well in 12 well cell culture clusters. After 24 hr, the cells were serum starved for 24 hr then incubated with compound or vehicle for 3 hr prior to a 30 min PDB stimulation. Cells were lysed as previously described (J. Biol. Chem. 273, 13317-13323 (1998)). […]

The test system of test [2] is Y. pseudotuberculosis. It counts as cell-based, Yersinia pseudotuberculosis. The settings on record: 60 μM, liquid LB medium.
Test [3] relates to human umbilical vein endothelial cells (HUVEC). In words: HUVEC wound migration assay. It counts as cell-based. Particulars: 60 μM, 1 hr prior to wounding; up to 20 hr. An excerpt: In these experiments, HUVEC were cells were subcultured to confluence in 35-mm plates. […] Scratches were made in the monolayer of cells using sterile, disposable micropipette tips. Images were captured—2 hr, 10 hr, and 20 hr after wounding. By 10 hr after wounding, the vehicle-treated cells at the wound edge have migrated toward the wound. Gaps in the monolayer behind the wound edge are apparent. The SL0101-treated cells have recovered from the wounding, however they show little signs of polarization toward the wound and no involvement of the cells behind the wound edge. At 20 hr, the vehicle-treated cells have migrated into the wound yet the gaps are still present behind the wound edge. The cells at the wound edge in the SL0101-treated well appear to have increased in size to fill the wound rather than migrate into the wound and the monolayered cells behind the wound edge remain tightly packed unlike the vehicle-treated cells. Accordingly the data support the premise that RSK inhibitors are useful tools to stop endothelial cell migration.

Test [4] concerns J774A.1 cells. In words: LPS-stimulated factor expression in J774A.1 cells (immunoblot). It counts as cell-based, murine. Particulars: 60 μM, 1 μg/ml LPS, 24 hours. The text has this: FIGS. 2A & 2B Analysis of LPS stimulated cytokine expression. […] Reactions were terminated with 2×-SDS lysis buffer at indicated time points and the lysates were immunoblotted.
FIGS. 3A & 3B RSK inhibition abrogates LPS-induced iNOS expression. […] Twenty-four hours after treatment, reactions were terminated with 2×-SDS lysis buffer and the lysates were immunoblotted.
LPS activation of macrophages results in secretion of factors that stimulate the innate immune system. […] Twenty-four hours after LPS treatment the cells were lysed as previously described (Traish, et al., 1998. J. Biol. Chem. 273:13317-13323) in preparation for immunoblot analysis. Expression of the pro-inflammatory factors, TNFα, IL-1b, the anti-inflammatory factor, IL-10 and inducible nitric oxide synthase was examined by immunoblot of the cell lysates.
In general terms: In western blotting, separated proteins are transferred to a membrane and probed.

Test [5] deals with MCF-10A cells. In words: MCF-10A cell proliferation. The format is cell-based, human. The settings on record: 50 μM (FIG. 8A). The method, then: The cell number was measured after 48 h of treatment. Values given are the fold proliferation as a percentage of that observed with vehicle-treated cells. Points, mean (n=2 in quadruplicate); bars=SD.
(§1) FIGS. 8A-8D SL0101-1 inhibits the proliferation of cancer cells but not normal cells. […] Cell viability was measured at indicated time points. Proliferation assays were conducted using CellTiter-Glo Luminescent Cell Viability Assay (Promega), performed 44 hrs after treatment for FIGS. 8A &B and at indicated points for FIG. 8C. The data are expressed relative to time 0.
(§2) Cell Culture. For proliferation studies cells were seeded at 2500 to 5000 cells per well in 96 well tissue culture plates in the appropriate medium as described by American Type Culture Collection. After 24 hr, the medium was replaced with medium containing compound or vehicle as indicated. Cell viability was measured at indicated time points using CellTiter-Glo™ assay reagent (Promega) according to manufacturer's protocol. For in vivo inhibition studies, cells were seeded at 2.5×10^5 cells/well in 12 well cell culture clusters. After 24 hr, the cells were serum starved for 24 hr then incubated with compound or vehicle for 3 hr prior to a 30 min PDB stimulation. Cells were lysed as previously described (J. Biol. Chem. 273, 13317-13323 (1998)). The lysates were normalized for total protein, electrophoresed and immunoblotted. For cell imaging, Ha-Ras-transformed NIH/3T3 cells were seeded on LABTEK II chamber slides (Nalge) at a density of 1×10^4 cells/well. After 24 hr, fresh medium was added the indicated compounds or vehicle. Images were taken 48 hr after treatment at a magnification of 20×.

The subject of test [6] is LNCaP cells. In words: LNCaP cell proliferation. It counts as cell-based, human. Particulars: 50 μM (FIG. 8B). The method, then:
as §1
as §2, with “Images were taken 48 hr after treatment at a magnification of 20×.” left out

Test [7] deals with CaLu-1 cells. In words: CaLu-1 wound migration assay. The format is cell-based, human. The settings on record: 60 μM, 24 hr after wounding. The method, then:
CaLu-1 cells were sub-cultured to confluence in 35-mm plates. […] Scratches were made in the monolayer of cells using sterile, disposable micropipette tips. Images were captured either immediately following the wounding, 6 hr, or 24 hours after wounding. At the point of wounding, the cells at the wound edge show increased light refraction indicating damage. By 6 hr after wounding, the vehicle-treated cells at the wound edge present wide lamella (indicated by arrows) extending toward the direction of the wound. […] At 24 hr, the vehicle-treated cells have migrated into the wound and are enlarged to re-form the confluent monolayer.

Regarding `CC(=O)O[C@@H]1[C@@H](OC(C)=O)[C@@H](O)[C@H](Oc2c(-c3ccc(O)cc3)oc3cc(O)cc(O)c3c2=O)O[C@H]1C` [SL0101, kaempferol 3-O-(3″,4″-di-O-acetyl-α-L-rhamnopyranoside)], the “PDB-induced p140 phosphorylation” value in test [1] is listed as “prevented the PDB-induced p140 phosphorylation”. Moreover, the “direct effect on growth of Y. pseudotuberculosis” value in test [2] was “does not directly affect the growth”. Also, in test [3], the “migration of HUVEC into wound” value is “reduce the ability of the cells to migrate”. Besides, in test [4], the “LPS-induced iNOS expression” value is given as “abrogated the induction of iNOS expression” and the “expression of TNFα, IL-1b, IL-10” value is “did not alter the expression”. In test [5], the “proliferation of MCF-10A cells” value is reported as “no effect on the growth”. In test [6], the “proliferation of LNCaP cells” value is “completely inhibits the proliferation”. Moreover, the “migration of Calu-1 cells into wound” value in test [7] is on record as “have not migrated to close the wound”.
